Results reported in PMC12525728, “Safety, Pharmacokinetics, Translational and Molecular Mechanistic Insights on the Prostate Cancer Recurrence Suppressor Pseurotin A” (Molecules, 2025).

Assays:
[1] = system: HFD-fed Swiss albino mice; test: Systemic cholesterol monitoring assay in HFD-fed mice, 90-day oral dosing; assay type: in vivo; details: 90 days; for reduction of HFD-induced hypercholesterolemia relative to the control: female; for plasma cholesterol relative reduction versus the control group: male
Description: Plasmatic cholesterol concentrations in mice were determined using a total cholesterol kit (EnzyChrom^TM Cholesterol Assay Kit ECCH-100 BioAssay Systems, Hayward, CA, USA), adhering to the manufacturer’s instructions. Colorimetric quantitation was measured at 340 nm using a Synergy 2 microplate reader (BioTek Instruments Inc., Winooski, VT, USA). Blood was collected through tail vein extraction on the day before treatment, day 35, and day 90. Blood was quickly collected into green-topped Lithium Heparin 400 µL blood collection tubes (BD Microtainer REF# 365965 Becton, Dickinson and Company, Franklin Lakes, NJ, USA), centrifuged at 13,000× g for 10 min, and the upper layer of plasma was transferred to 1.5 mL Eppendorf tubes (Thermo Fisher Scientific, Waltham, MA, USA) and stored at −20 °C until analysis.
For the 90-day daily oral dosing sub-chronic toxicity study, twenty male and twenty female healthy 8-week-old Swiss albino mice were randomly selected and randomized to […] (n = 5/sex/group). Mice received free access to purified drinking water and high-fat diet (HFD) pelleted rodent chow (11.4% total fat, no. 7004, Envigo/Teklad, Madison, WI, USA) until the day before sacrifice, at which time they were fasted for 8 h and allowed only free access to drinking water. Daily doses of PsA (10, 40, 80 mg/kg body weight) were administered to the mice formulated in <5% DMSO (Mediatech Inc., Manassas, VA, USA) and <0.2% Tween 80 (Croda Inc., Princeton, NJ, USA) at a volume not exceeding 1% of body weight by metal oral gavage (2 mm diameter with stainless steel bite protector, 18-gauge, 3.81 cm long). […] The mice were observed weekly until the completion of the study. The body weights of the mice were measured in grams using a Scout^TM Pro (Ohaus Corp., Pine Brook, NJ, USA) on day 0, 4, 8, 11, 14, 21, 28, 35, 42, 49, 56, 63, 70, 77, 83, and 90 after initial treatment. On day 90, all mice were anesthetized using isoflurane (USP-vaporizer method, Matrix VIP-3000, Covetrus, Dublin, OH, USA, exposure of animals in an anesthesia chamber at 3% isoflurane vaporization rate. Exposure time 2 min). Mice were then euthanized by cervical dislocation according to the 2020 AVMA Guidelines on Euthanasia and dissected. Mice organs (brain, liver, kidney, heart, lungs, spleen) were excised and weighed for histopathological examination. The organs were stored in 10% neutral buffered formalin (Avantor Science Central, Allentown, PA, USA) for 24 h and then transferred to 70% ethanol (AAPER ALCOHOL, Shelbyville, KY, USA). This study was performed following the OECD guideline 408 for the testing of chemicals.

[2] = Pharmacokinetics study in Swiss albino mice; assay type: in vivo; details: following oral dosing

What does the source list for CC/C=C\[C@H](O)[C@H](O)C1=C(C)C(=O)[C@]2(O1)C(=O)N[C@@](OC)(C(=O)c1ccccc1)[C@@H]2O [PsA, pseurotin A]?
reduction of HFD-induced hypercholesterolemia relative to the control ([1]; 10 mg/kg daily oral): −80.7%; reduction of HFD-induced hypercholesterolemia relative to the control ([1]; 40 mg/kg daily oral): −92.9%; reduction of HFD-induced hypercholesterolemia relative to the control ([1]; 80 mg/kg daily oral): −85.5%; plasma cholesterol relative reduction versus the control group ([1]; 10 mg/kg daily oral): −96.1%; plasma cholesterol relative reduction versus the control group ([1]; 40 mg/kg daily oral): −107.3%; plasma cholesterol relative reduction versus the control group ([1]; 80 mg/kg daily oral): −116.7%; plasma detectability by validated HPLC method [2]: not detectable in the plasma
